We go through 14 compounds from US10144715B2, “Piperazine derivatives as liver X receptor modulators” (priority 2014, dated 2018).

Read-outs that look alike come from different tables or passages of the source.

One experiment has as its target LXR α LBD protein (Homo sapiens (Human), UniProt Q13133). Description: LXR α radioligand binding assay (SPA, competition with [3H]TO901317). Particulars: read-out: LXRα Binding Ki.
In the next experiment the target is LXR β LBD protein (Homo sapiens (Human), UniProt P55055). Description: biochemical. The class given is binding.
Chain of LXR β LBD protein (P55055 222-460 limits assumed): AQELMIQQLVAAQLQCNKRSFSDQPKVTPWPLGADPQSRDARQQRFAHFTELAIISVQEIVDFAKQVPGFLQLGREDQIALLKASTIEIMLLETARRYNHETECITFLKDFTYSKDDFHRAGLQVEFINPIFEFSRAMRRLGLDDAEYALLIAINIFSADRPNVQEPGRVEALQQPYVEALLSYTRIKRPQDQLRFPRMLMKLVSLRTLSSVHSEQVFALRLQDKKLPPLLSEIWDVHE
Experiment [1] deals with Gal4 DNA binding domain fused to the LBD of LXRα in HEK293 cells (Homo sapiens (Human), UniProt Q13133). Description: LXR luciferase transcriptional reporter gene assay, agonist mode, LXRα. The experiment is classed as cell-based. Particulars: for EC50: read-out: Cell LXRα EC50.
Chain of Gal4 DNA binding domain fused to the LBD of LXRα in HEK293 cells (Q13133 209-447): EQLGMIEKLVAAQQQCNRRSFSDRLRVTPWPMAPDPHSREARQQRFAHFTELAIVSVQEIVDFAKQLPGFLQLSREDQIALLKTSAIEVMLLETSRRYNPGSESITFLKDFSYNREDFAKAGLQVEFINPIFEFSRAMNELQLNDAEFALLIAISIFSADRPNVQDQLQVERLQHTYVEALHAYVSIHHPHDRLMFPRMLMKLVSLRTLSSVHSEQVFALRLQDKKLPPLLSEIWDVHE
In experiment [2] the target is Gal4 DNA binding domain fused to the LBD of LXRβ in HEK293 cells (Homo sapiens (Human), UniProt P55055). Description: cell-based.
Chain of Gal4 DNA binding domain fused to the LBD of LXRβ in HEK293 cells (P55055 222-460 limits assumed): as the sequence (P55055 222-460 limits assumed) above
Where [3] appears, read: Biological Test Example 1, read-out: LXRβ Binding Ki.
[4] abbreviates: Biological Test Example 2, agonist mode.
Where [5] appears, read: Biological Test Example 2, agonist mode, read-out: Cell LXRβ EC50.

One may read the Ki as a measure of affinity in units of concentration, obtained from inhibition or displacement. One may read the EC50 as the concentration that produces a half-maximal response.

Chain of LXR α LBD protein (Q13133 209-447): as the sequence (Q13133 209-447) above

With `CS(=O)(=O)c1cc(N2CCN(C[C@H]3CC[C@@H](C(F)(F)F)CC3)[C@@H](c3ccccc3)C2)ccc1C#N` (single isomer, unassigned) [50-6], the values for the Ki at LXR α LBD protein and at LXR β LBD protein (setting [3]) were 241 nM and 58 nM, respectively. Besides, the “Cell LXRα efficacy” value in experiment [1] is 429 (81) %. The values for the EC50 in experiment [1] and in experiment [2] (setting [5]) were 429 nM and 226 nM, respectively. For the same compound, in experiment [2] (setting [4]), the “Cell LXRβ efficacy” value amounted to 53%.

Consider `CC(C)[C@@H]1CN(c2ccc(F)c(S(C)(=O)=O)c2)CCN1c1ncc(C(=O)N(C)CCCNC(=O)OC(C)(C)C)c(C(F)(F)F)n1` [17-23, tert-butyl (R)-(3-(2-(4-(4-fluoro-3-(methylsulfonyl)phenyl)-2-isopropylpiperazin-1-yl)-N-methyl-4-(trifluoromethyl)pyrimidine-5-carboxamido)propyl)carbamate], for which the inhibition constant (Ki) at LXR α LBD protein worked out at 1420 nM; on LXR β LBD protein (read-out: LXRβ Binding Ki), 257 nM. For the same compound, the concentration for a half-maximal effect (EC50) in experiment [1] (agonist mode) and in experiment [2] was > 20000 nM in each case.

Turning to `CC(C)[C@H]1CN(c2ccc(CO)c(S(C)(=O)=O)c2)CCN1C[C@@H]1CC[C@H](C(F)(F)F)OC1` [Cpd No 49-4, (4-((S)-3-isopropyl-4-(((3S,6R)-6-(trifluoromethyl)tetrahydro-2H-pyran-3-yl)methyl)piperazin-1-yl)-2-(methylsulfonyl)phenyl)methanol], the inhibition constant Ki on LXR α LBD protein came out at 44 nM. The Ki on LXR β LBD protein (read-out: LXRβ Binding Ki) came to 7 nM. Besides, in experiment [1], the “Cell LXRα efficacy” value was 27 (80) % and the EC50 was found to be 27 nM. In addition, in experiment [2], the “Cell LXRβ efficacy” value is 20 (101) % and the EC50 worked out at 20 nM.

In the case of `CC(C)[C@@H]1CN(c2ccc(C(N)=O)c(S(C)(=O)=O)c2Cl)CCN1c1nccc(C(F)(F)F)n1` [4-3, (R)-3-chloro-4-(3-isopropyl-4-(4-(trifluoromethyl)pyrimidin-2-yl)piperazin-1-yl)-2-(methylsulfonyl)benzamide], the results for the Ki on LXR α LBD protein and at LXR β LBD protein (read-out: LXRβ Binding Ki) were > 3330 nM and > 2500 nM, respectively. For the same compound, the EC50 was > 20000 nM in experiment [1] and 1680 nM in experiment [2]. The “Cell LXRβ efficacy” value in experiment [2] (agonist mode) is recorded as 1679 (12) %.

Take `CC(C)[C@@H]1CN(c2ccc(F)c(S(C)(=O)=O)c2)CCN1c1ncc(C(=O)N(C)CCO)c(C(F)(F)F)n1` [17-7, (R)-2-(4-(4-fluoro-3-(methylsulfonyl)phenyl)-2-isopropylpiperazin-1-yl)-N-(2-hydroxyethyl)-N-methyl-4-(trifluoromethyl)pyrimidine-5-carboxamide]: the results for the Ki at LXR α LBD protein and on LXR β LBD protein were > 3330 nM and 507 nM, respectively. Moreover, the concentration giving a half-maximal response (EC50) in experiment [1] and in experiment [2] was > 20000 nM in each case.

Turning to `C[C@H](c1ccc(C(F)(F)F)cc1)N1CCN(c2cccc(S(C)(=O)=O)c2)C[C@H]1c1ccccc1` [46-19, (R)-4-(3-(methylsulfonyl)phenyl)-2-phenyl-1-((R)-1-(4-(trifluoromethyl)phenyl)ethyl)piperazine], the Ki at LXR α LBD protein is > 3330 nM; at LXR β LBD protein, 1900 nM. The EC50 was > 20000 nM in experiment [1] and 4350 nM in experiment [2]. The “Cell LXRβ efficacy” value in experiment [2] is listed as 4348 (6) %.

For the compound `CC(C)[C@H]1CN(c2ccc(CO)c(S(C)(=O)=O)c2)CCN1C[C@H]1CC[C@@H](C(F)(F)F)OC1` [Cpd No 49-1, (4-((S)-3-isopropyl-4-(((3R,6S)-6-(trifluoromethyl)tetrahydro-2H-pyran-3-yl)methyl)piperazin-1-yl)-2-(methylsulfonyl)phenyl)methanol], the inhibition constant Ki on LXR α LBD protein came to 356 nM; on LXR β LBD protein (read-out: LXRβ Binding Ki), 37 nM. For the same compound, the “Cell LXRα efficacy” value in experiment [1] is recorded as 195 (64) %. Besides, the results for the EC50 in experiment [1] and in experiment [2] were 195 nM and 110 nM, respectively. In experiment [2], the “Cell LXRβ efficacy” value is listed as 110 (94) %.

As for `CC(C)(O)c1cc(CN2CCN(c3cccc(S(C)(=O)=O)c3)C[C@H]2c2ccccc2)ccc1C(F)(F)F` [10-14, (R)-2-(5-((4-(3-(methylsulfonyl)phenyl)-2-phenylpiperazin-1-yl)methyl)-2-(trifluoromethyl)phenyl)propan-2-ol], the Ki was 4560 nM on LXR α LBD protein and 1480 nM at LXR β LBD protein (read-out: LXRβ Binding Ki). Further, the EC50 in experiment [1] (agonist mode) and in experiment [2] was > 20000 nM each time.

On to `CC(C)[C@@H]1CN(c2ccc(Cl)c(S(C)(=O)=O)c2)CCN1c1ncc(CO)c(C(F)(F)F)n1` [11-3, (R)-(2-(4-(4-chloro-3-(methylsulfonyl)phenyl)-2-isopropylpiperazin-1-yl)-4-(trifluoromethyl)pyrimidin-5-yl)methanol], for which the Ki on LXR α LBD protein was found to be 146 nM; on LXR β LBD protein (read-out: LXRβ Binding Ki) it was 6 nM. The “Cell LXRα efficacy” value in experiment [1] was 1014 (62) %. In addition, the EC50 in experiment [1] is 1010 nM; in experiment [2] it was 95 nM. The “Cell LXRβ efficacy” value in experiment [2] (agonist mode) is listed as 95 (44) %.

Turning to `CS(=O)(=O)c1cc(N2CCN(C[C@H]3CC[C@@H](C(F)(F)F)CC3)[C@H](c3ccccc3)C2)ccc1C#N` (single isomer, unassigned) [50-5], the Ki on LXR α LBD protein came out at 6550 nM; on LXR β LBD protein (setting [3]) it was 688 nM. The “Cell LXRα efficacy” value in experiment [1] was 10000 (7) %. For the same compound, the concentration giving a half-maximal response (EC50) in experiment [1] worked out at 10000 nM; in experiment [2] (setting [5]), 997 nM. Further, the “Cell LXRβ efficacy” value in experiment [2] (setting [4]) is listed as 11%.

Take `CC(C)[C@@H]1CN(c2ccc(C#N)c(S(C)(=O)=O)c2)CCN1c1ncc([C@H](C)O)c(C(F)(F)F)n1` (single isomer, unassigned) [12-5]: the inhibitory constant (Ki) on LXR α LBD protein was found to be 1180 nM; on LXR β LBD protein (read-out: LXRβ Binding Ki) it was 80 nM. In addition, the “Cell LXRα efficacy” value in experiment [1] is recorded as 1481 (22) %. Besides, the concentration for a half-maximal effect (EC50) in experiment [1] amounted to 1480 nM; in experiment [2], 521 nM. In addition, the “Cell LXRβ efficacy” value in experiment [2] (agonist mode) is listed as 521 (40) %.

As to `Cc1noc(-c2ccc(N3CCN(c4ncc(CO)c(C(F)(F)F)n4)[C@H](C(C)C)C3)cc2S(C)(=O)=O)n1` [11-10, (R)-(2-(2-isopropyl-4-(4-(3-methyl-1,2,4-oxadiazol-5-yl)-3-(methylsulfonyl)phenyl)piperazin-1-yl)-4-(trifluoromethyl)pyrimidin-5-yl)methanol], the Ki is > 3330 nM at LXR α LBD protein and 773 nM at LXR β LBD protein (read-out: LXRβ Binding Ki). Also, the “Cell LXRα efficacy” value in experiment [1] is listed as 6291 (28) %. The concentration giving a half-maximal response (EC50) in experiment [1] (agonist mode) amounted to 6290 nM; in experiment [2], 2250 nM. The “Cell LXRβ efficacy” value in experiment [2] (agonist mode) was 2253 (36) %.

Take `Cc1nc(N2CCN(c3ccc(F)c(S(C)(=O)=O)c3)C[C@H]2C(C)C)ncc1C(N)=O` [17-24, (R)-2-(4-(4-fluoro-3-(methylsulfonyl)phenyl)-2-isopropylpiperazin-1-yl)-4-methylpyrimidine-5-carboxamide]: the inhibition constant Ki was > 3330 nM on LXR α LBD protein and 611 nM at LXR β LBD protein (read-out: LXRβ Binding Ki). In addition, the 50% effective concentration (EC50) in experiment [1] (agonist mode) and in experiment [2] was > 20000 nM each time.

On to `CC(C)[C@@H]1CN(c2ccc(CO)c(S(C)(=O)=O)c2)CCN1c1ncc(C(C)(C)O)c(C(F)(F)F)n1` [10-7, (R)-2-(2-(4-(4-(hydroxymethyl)-3-(methylsulfonyl)phenyl)-2-isopropylpiperazin-1-yl)-4-(trifluoromethyl)pyrimidin-5-yl)propan-2-ol], for which the inhibition constant Ki was found to be 261 nM at LXR α LBD protein and 18 nM at LXR β LBD protein (read-out: LXRβ Binding Ki). Besides, in experiment [1], the “Cell LXRα efficacy” value was 1520 (51) %. In addition, the results for the concentration for a half-maximal effect (EC50) in experiment [1] (agonist mode) and in experiment [2] were 1520 nM and 235 nM, respectively. Further, in experiment [2] (agonist mode), the “Cell LXRβ efficacy” value is recorded as 235 (40) %.
